Assays:
CHO-K1-PD1 cells = test: Antibody-mediated phagocytic activity (ADCP) of murine macrophages on CHO-K1-PD1; assay type: cell-based, mouse; settings: CHO-K1-PD1-CFSE target cells
Method: To detect the antibody dependent cellular phagoxytosis (ADCP) activity, murine macrophages were used as effector cells and cell lines overexpressing PD1 were used as target cells. The femoral bone marrow of Blab/c mice (purchased from Guangdong Medical Laboratory Animal Center) was first aseptically collected and lysed by erythrocyte lysis buffer on ice for 5 min. The lysis was terminated with DMEM complete medium (containing 10% FBS), and the lysate was centrifuged at 1000 rpm and washed twice. The cell pellet was resuspended in 10 mL of DMEM complete medium and M-CSF were added at a working concentration of 100 ng/mL. […] The supernatant was discarded and the cells were suspended in DMEM complete medium (containing 10% FBS) and counted. […] CHO-K1-PD1 cells (a CHO-K1 cell line overexpressing PD1) were centrifuged at 170×g for 5 min, washed once with PBS, resuspended and counted. The viability was determined. […]
The test antibodies were diluted in DMEM complete medium to 20, 2 and 0.2 μg/mL (the working concentrations were 10, 1 and 0.1 μg/mL). […] The cells were transferred to loading tube and analyzed by BD FACS Calibur flow cytometer. […] The phagocytosis rate was determined as the ratio of the number of double positive cells to the number of APC positive cells, and the antibody-mediated ADCP activity was evaluated. […]

[1] = system: human nasopharyngeal cancer CNE-2Z cells; test: Raji-PDL1, PBMC and CNE-2Z co-culture with antibodies and anlotinib, IL-2 ELISA; assay type: cell-based; settings: CNE-2Z co-culture, 3 days; compared to the anti-HEL antibody and the anlotinib monotherapies
Method: PBMCs were isolated from healthy human peripheral blood according to the Ficoll-Paque™ Plus reagent instruction, and the isolated PBMCs were counted and frozen. Raji-PDL1 and CNE-2Z cells (purchased from GuangZhou Jennio Biotech Co., Ltd.) were cultured in RPMI 1640+10% FBS complete medium. PBMCs were thawed and activated with 0.5 μg/mL SEB for two days. On the day of the experiment, Raji-PDL1 cells were treated with 2 μg/mL MMC for 1 h. SEB-activated PBMCs and MMC-treated Raji-PDL1 cells were collected, washed twice with PBS, resuspended in RPMI 1640+10% FBS complete medium and counted. Raji-PDL1 and PBMC cells were seeded on 96-well plates at 1×10^5 cells/well. CNE-2Z cells in logarithmic growth phase were collected and seeded on the 96-well plate at 3×10^4 cells/well. The diluted antibodies and anlotinib were added according to the study design. The mixture was mixed evenly and incubated in a 5% CO2 incubator at 37° C. for 3 days. After 3 days, the cell culture supernatant was collected and tested for IL-2 according to ELISA KIT instruction. The media in this experiment were all 10% FBS+RPMI 1640.

[2] = system: MSI-H/dMMR tumor SW48 cells; test: Raji-PDL1, PBMC and SW48 co-culture with antibodies and anlotinib, IL-2 ELISA; assay type: cell-based, human; settings: 3 days, compared to anti-HEL antibody
Method: SW48 is a human colorectal cancer cell line and is identified with MSI-H/dMMR phenotype (Branch P et al., (1995), Cancer Res, 55(11): 2304-2309). It was used for detecting the enhanced immune cell response to tumor of MSI-H/dMMR phenotype by 14C12H1L1(hG1TM).
PBMCs were isolated from healthy human peripheral blood according to the Ficoll-Paque™ Plus reagent instruction, and the isolated PBMCs were counted and frozen. Raji-PDL1 cells were cultured in RPMI 1640+10% FBS complete medium, and SW48 cells (purchased from GuangZhou Jennio Biotech Co., Ltd.) were cultured in DMEM+10% FBS complete medium. PBMCs were thawed and activated with 0.5 μg/mL SEB for two days. On the day of the experiment, Raji-PDL1 cells were treated with 2 μg/mL MMC for 1 h. SEB-activated PBMCs and MMC-treated Raji-PDL1 cells were collected, washed twice with PBS, resuspended in RPMI 1640+10% FBS complete medium and counted. Raji-PDL1 and PBMC cells were seeded on 96-well plates at 1×10^5 cells/well. SW48 cells in logarithmic growth phase were collected and seeded on the 96-well plate at 2×10^5 cells/well. The diluted antibody and anlotinib was added according to the study design. The mixture was mixed evenly and incubated in a 5% CO2 incubator at 37° C. for 3 days. After 3 days, the cell culture supernatant was collected and tested for IL-2 according to ELISA KIT instruction. […]

[3] = system: human colorectal cancer SW837 cells; test: Raji-PDL1, PBMC and SW837 co-culture, IL-2 ELISA; assay type: cell-based; settings: 3 days
Method: SW837 is a human colorectal cancer cell line of non-MSI-H/dMMR (i.e., MSS) phenotype (Guo J et al., Cancer Res., 2011; 71(8):2978-2987), and was used for detecting the enhanced immune cell response to tumor of non-MSI-H/dMMR (i.e., MSS) phenotype by 14C12H1L1(hG1TM) in this example.
PBMCs were isolated from healthy human peripheral blood according to the Ficoll-Paque™ Plus reagent instruction, and the isolated PBMCs were counted and frozen. Raji-PDL1 cells were cultured in RPMI 1640+10% FBS complete medium, and SW837 cells (purchased from Shanghai Honsun Biological Technology Co., Ltd) were cultured in 10% FBS+Leibovitz's L-15 complete medium (purchased from Gibco). PBMCs were thawed and activated with 0.5 μg/mL SEB for two days. On the day of the experiment, Raji-PDL1 cells were treated with 2 μg/mL MMC for 1 h. SEB-activated PBMCs and MMC-treated Raji-PDL1 cells were collected, washed twice with PBS, resuspended in RPMI 1640+10% FBS complete medium and counted. Raji-PDL1 and PBMC cells were seeded on 96-well plates at 1×10^5 cells/well. SW837 cells in logarithmic growth phase were collected and seeded on the 96-well plate at 5×10^4 cells/well. The diluted antibody was added according to the study design. The mixture was mixed evenly and incubated in a 5% CO2 incubator at 37° C. for 3 days. […]

## nivolumab: anti-PD-1 antibody nivolumab (trade name: Opdivo), purchased from Bristol-Myers Squibb [reference compound]
CHO-K1-PD1 cells
  ADCP effect: have ADCP effects
CHO-K1-PD1 cells; at the same concentration, 2 h, flow cytometry
  phagocytic rate relative to that of the isotype control anti-HEL antibody: 4.26 times
[1]
  immune response of immune cells (IL-2 secretion level): significantly increased IL-2 secretion level
[2]
  immune response of immune cells (secretion level of IL-2): significantly increased secretion level of IL-2
[3]
  immune response of immune cells (IL-2): significantly enhanced the immune response

Source: patent US20220267444A1, “ANTI-PD-1 ANTIBODY AND MEDICAL USE THEREOF” (CTTQ-AKESO (SHANGHAI) BIOMED. TECH. CO., LTD., priority 2019, published 2022)
